Results taken from patent publication EP0335369A2, “New anthracycline derivatives and processes for the preparation of the same” (priority 1988, dated 1989).

Experiments:
[1] = test system: Leukemia L-1210 cells; test: Test 3: antitumor activity against leukemia induced in CDF1 mice by Leukemia L-1210 cells (procedure of Test 1 repeated); format: in vivo; details: for % Increase in life-span (T/C, %): intraperitoneally once per day for 9 consecutive days, observation 60 days
Method: Antitumor activities against leukemia in CDF1 mice as induced by mouse leukemia, Leukemia L-1210 cells
To evaluate the antitumor effects of the compounds of the formula (I') according to the sixth aspect of this invention against experimental tumors in animals, the procedure of Test 1 given hereinbefore is repeated. Thus, CDF1 mice were intraperitoneally transplanted with cells of Leukemia L-1210 (at a dose of 1 x 10^5 cells/mouse). After an elapsed time of 24 hours from the tumor transplantation, a test compound of the formula (I') of the sixth aspect invention to be evaluated was administered intraperitoneally for 9 consecutive days once per day. Observation was made for 60 day, where survival days of each mouse tested were recorded. In comparison with the control test wherein mice were treated with the administration of physiological saline alone, the increase (%) in the life-span of the treated mice was calculated as T/C %, where T is the mean survival days of the treated animals and C is the mean survival days of the untreated control animals. For the comparison, daunomycin and adriamycin were also tested in the same manner.

[2] = test system: Leukemia L-1210 cells; test: Test 1: antitumor activity against leukemia induced in CDF1 mice by Leukemia L-1210 cells (life-span increase); format: in vivo; details: intraperitoneally once per day for 9 consecutive days, observation 60 days
Method: Antitumor activities against leukemia in CDF, mice as induced by mouse leukemia, Leukemia L-1210 cells
After an elapsed time of 24 hours, a compounds of the formula (I) of this invention to be tested was administered intraperitoneally for 9 consecutive days once per day. Observation was made for 60 days, where survival days of each mouse tested were recorded. In comparison with the control test wherein mice were treated with the administration of physiological saline alone, the increase (%) in the life-span of the treated mice was calculated as T/C %, where T is the mean survival days of the treated animals and C is the mean survival days of the untreated control animals. For the comparison, daunomycin and adriamycin were also tested in the same manner.

Row | SMILES | % Increase in life-span (T/C, %) ([1]; Dose 0.15 mg/kg/day) [%] | % Increase in life-span (T/C, %) ([1]; Dose 0.3 mg/kg/day) [%] | % Increase in life-span (T/C, %) ([1]; Dose 0.6 mg/kg/day) [%] | % Increase in life-span (T/C, %) ([1]; Dose 1.25 mg/kg/day) [%] | % Increase in life-span (T/C, %) ([1]; Dose 2.5 mg/kg/day) [%] | % Increase in life-span (T/C, %) ([1]; Dose 5 mg/kg/day) [%] | % Increase in life-span (T/C, %) ([2]; Dose 0.15 mg/kg/day) [%] | % Increase in life-span (T/C, %) ([2]; Dose 0.3 mg/kg/day) [%] | % Increase in life-span (T/C, %) ([2]; Dose 0.6 mg/kg/day) [%] | % Increase in life-span (T/C, %) ([2]; Dose 1.25 mg/kg/day) [%] | % Increase in life-span (T/C, %) ([2]; Dose 2.5 mg/kg/day) [%] | % Increase in life-span (T/C, %) ([2]; Dose 5 mg/kg/day) [%] | complete cure of the leukemia in the mice ([1]; intraperitoneally, 0.15 mg/kg/day)
1 | COc1cccc2c1C(=O)c1c(O)c3c(c(O)c1C2=O)C[C@@](O)(C(=O)CO)C[C@@H]3O[C@@H]1O[C@@H](C)[C@@H](O)[C@@H](O)[C@H]1F [7-0-(2,6-Dideoxy-2-fluoro-α-L-talopyranosyl) adriamycinone, reference compound] | 127 | 182 | 185 | 275 | >350 | >750 | 127 | 182 | 185 | 275 | >350 | >750 | 
2 | COc1cccc2c1C(=O)c1c(O)c3c(c(O)c1C2=O)C[C@@](O)(C(C)=O)C[C@@H]3O[C@@H]1O[C@@H](C)[C@@H](O)[C@@H](O)[C@H]1F [7-0-(2,6-Dideoxy-2-fluoro-α-L-talopyranosyl) daunomycinone, reference compound] | 105 | 105 | 118 | 171 | 217 | 184 | 105 | 105 | 118 | 171 | 217 | 184 | 
3 | COc1cccc2c1C(=O)c1c(O)c3c(c(O)c1C2=O)C[C@@](O)(C(=O)CO)C[C@@H]3O[C@H]1C[C@H](N)[C@H](O)[C@H](C)O1 [Adriamycin, reference compound] | 123 | 136 | 142 | 222 | 228 | 191 | 123 | 136 | 142 | 222 | 228 | 191 | 
4 | COc1cccc2c1C(=O)c1c(O)c3c(c(O)c1C2=O)C[C@@](O)(C(C)=O)C[C@@H]3O[C@H]1C[C@H](N)[C@H](O)[C@H](C)O1 [Daunomycin, reference compound] | 130 | 133 | 166 | 193 | 151 | 117 | 130 | 133 | 166 | 193 | 151 | 117 | 
5 | COc1cccc2c1C(=O)c1c(O)c3c(c(O)c1C2=O)C[C@@](O)(C(C)=O)C[C@@H]3O[C@@H]1O[C@@H](C)[C@H](O)[C@@H](O)[C@H]1F [Example 1, 7-0-(2,6-dideoxy-2-fluoro-a-L-mannopyranosyl)daunomycinone] |  |  |  |  |  |  | 109 | 123 | 189 | >309 | 280 | 160 | 
6 | CC(=O)[C@]1(O)Cc2c(O)c3c(c(O)c2[C@@H](O[C@@H]2O[C@@H](C)[C@H](O)[C@@H](O)[C@H]2F)C1)C(=O)c1ccccc1C3=O [Example 2, 4-demethoxy-7-O-(2,6-dideoxy-2-fluoro-α-L-mannopyranosyl)daunomycinone] |  |  |  |  |  |  | 113 | 163 | 309 | > 686 | 134 | 73 | 
7 | COc1cccc2c1C(=O)c1c(O)c3c(c(O)c1C2=O)C[C@@](O)(C(=O)CO)C[C@@H]3O[C@@H]1O[C@@H](C)[C@H](O)[C@@H](O)[C@H]1F [Example 3, 7-O-(2,6-dideoxy-2-fluoro-a-L-mannopyranosyl)adriamycinone] |  |  |  |  |  |  | 157 | >440 | >363 | >426 | 231 | 211 | 
8 | C[C@@H]1O[C@@H](O[C@H]2C[C@](O)(C(=O)CO)Cc3c(O)c4c(c(O)c32)C(=O)c2ccccc2C4=O)[C@H](F)[C@H](O)[C@H]1O [Example 4, 7-O-(2,6-dideoxy-2-fluoro-a-L-mannopyranosyl)-4-demethoxyadriamycinone] |  |  |  |  |  |  | >534 | >686 | >686 | 141 | 53 | 22 | 
9 | CC(=O)[C@]1(O)Cc2c(O)c3c(c(O)c2[C@@H](O[C@@H]2O[C@@H](C)[C@@H](O)[C@@H](O)[C@H]2F)C1)C(=O)c1ccccc1C3=O [Example 12, 4-demethoxy-7-O-(2,6-dideoxy-2-fluoro-α-L-talopyranosyl)daunomycinone] | 106 | 138 | 202 | > 436 | 101 | 80 |  |  |  |  |  |  | 
10 | C[C@@H]1O[C@@H](O[C@H]2C[C@](O)(C(=O)CO)Cc3c(O)c4c(c(O)c32)C(=O)c2ccccc2C4=O)[C@H](F)[C@H](O)[C@@H]1O [Example 13, 4-demethoxy-7-O-(2,6-dideoxy-2-fluoro-a-L-talopyranosyl)adriamycinone] |  | >348 | >427 | 96 | 80 | 77 |  |  |  |  |  |  | three mice were completely cured among the treated four mice
